The source of these data is US20160279142A1, “COMBINATIONS OF A PHOSPHOINOSITIDE 3-KINASE INHIBITOR COMPOUND AND A CDK4/6 INHIBITOR COMPOUND FOR THE TREATMENT OF CANCER” (Genentech, Inc., priority 2015, published 2016).

The structures appear in SMILES notation. Entries after “also recorded” stand apart in the source; their conditions may differ.

Experiment [1] deals with MCF-7 breast cancer xenografts. Put plainly: In vivo tumor efficacy study, MCF-7 breast cancer xenografts. The conditions noted are these: MCF-7 xenograft mice; for CR: complete responses (100% tumor regression); for PR: partial responses (tumor regression >50% but <100%); for TTP 2X: time to progression 2X; for TTP 2X / AUC/Day % TGI (lower, upper): po qdx21; for AUC/Day % TGI (lower, upper): tumor growth inhibition vs vehicle; for Vol Day 21: tumor volume at day 21, po qdx21 (method b194 gives mm^3). As for the experimental part: The animals were fed ad libitum water (reverse osmosis, 1 ppm Cl) and NIH 31 Modified and Irradiated Lab Diet® consisting of 18.0% crude protein, 5.0% crude fat, and 5.0% crude fiber. The mice were housed on irradiated ALPHA-Dri® Bed-o'Cobs® Laboratory Animal Bedding in static microisolators on a 12-hour light cycle at 21-22° C. (70-72° F.) and 40-60% humidity. PRC specifically complies with the recommendations of the Guide for Care and Use of Laboratory Animals with respect to restraint, husbandry, surgical procedures, feed and fluid regulation, and veterinary care. The animal care and use program at PRC is accredited by the Association for Assessment and Accreditation of Laboratory Animal Care International (AAALAC), which assures compliance with accepted standards for the care and use of laboratory animals.
Xenografts were initiated with cancer cells, including breast cancer cell lines MCF-7 (Soule H. D. et al (1973) Jour. Nat. Cancer Inst. 51 (5): 1409-1416; Levenson A. S. et al (1997) Cancer Res. 57 (15): 3071-3078; LaCroix M. et al (2004) Breast Res. and Treatment 83 (3): 249-289) and MDA-MB-453 (Vranic S. et al (2011) Onc. Letters 2: 1131-1137; Hall R. E. et al (1994) Euro. Jour. Cancer 30(4):484-490). Cells were cultured in RPMI 1640 medium supplemented with 10% fetal bovine serum, 2 mM glutamine, 100 units/mL penicillin, […] streptomycin sulfate and 25 μg/mL gentamicin. The cells were harvested during exponential growth and resuspended in phosphate buffered saline (PBS) at a concentration of 5×10^6 or 10×10^6 cells/mL depending on the doubling time of the cell line. Tumor cells were implanted subcutaneously in the right flank, and tumor growth was monitored as the average size approached the target range of 100 to 150 mm3. Twenty-one days after tumor implantation, designated as Day 0 of the study, the mice were placed into four groups each consisting of ten mice with individual tumor volumes ranging from 75-172 mm3 and group mean tumor volumes from 120-121 mm3 (see Appendix A). Volume was calculated using the formula: […]
GDC-0032 was supplied as a dry powder in salt form, which contained 73% active agent, and was stored at room temperature protected from light. Drug doses were prepared weekly in 0.5% methylcellulose: 0.2% Tween 80 in deionized water (“Vehicle”) and stored at 4° C. The salt form containing 73% active agent was accounted for in the formulation of GDC-0032 doses. Doses of GDC-0032 were prepared on each day of dosing by diluting an aliquot of the stock with sterile saline (0.9% NaCl). All doses were formulated to deliver the stated mg/kg dosage in a volume of 0.2 mL per 20 grams of body weight (10 mL/kg).
All doses were scaled to the body weights of the individual animals and were provided by the route indicated in each of the figures.
Tumor volume was measured in 2 dimensions (length and width), using Ultra Cal IV calipers (Model 54 10 111; Fred V. Fowler Company), as follows: tumor volume (mm^3)=(length×width^2)×0.5 and analyzed using Excel version 11.2 (Microsoft Corporation). A linear mixed effect (LME) modeling approach was used to analyze the repeated measurement of tumor volumes from the same animals over time (Pinheiro, J. et al (2009); Tan, N. et al (2011) Clin. Cancer Res. 17(6):1394-1404). This approach addresses both repeated measurements and modest dropouts due to any non-treatment-related death of animals before study end. Cubic regression splines were used to fit a nonlinear profile to the time courses of log 2 tumor volume at each dose level. These nonlinear profiles were then related to dose within the mixed model. Tumor growth inhibition as a percentage of vehicle control (% TGI) was calculated as the percentage of the area under the fitted curve (AUC) for the respective dose group per day in relation to the vehicle, using the following formula: % TGI=100×(1−AUCdose/AUCveh). […]

Experiment [2] has as its system MCF7×2.3.ARO.LetR letrozole-resistant breast cancer cells (Letrozole-R1). The experiment can be described thus: CellTiter-Glo cell viability, letrozole-resistant MCF7x2.3.ARO.LetR. To be noted: letrozole-resistant MCF7 LetR (FIG. 1b, FIG. 4). Type of experiment: cell-based. As for the experimental part: (§1) Cell culture. MCF7 cell line was obtained from the American Type Culture Collection (ATCC, VA). The cells were tested and authenticated using gene expression and single nucleotide polymorphism genotyping arrays (Hoeflich K P, et al (2009) Clin Cancer Res, 15(14):4649-4664; Hu X, et al (2009) Mol Cancer Res, 7(4):511-522) and cultured in RPMI supplemented with 10% fetal bovine serum, 100 units/ml penicillin, 100 µg/ml streptomycin, 2 mM L-glutamine and NEAA at 37° C. under 5% CO2. Stable aromatase-expressing MCF7 cells (MCF7-ARO) were generated by transfection of a plasmid vector containing the full aromatase gene and a neomycin selection gene. The cells were maintained in androstenedione and all experiments were performed in the presence of androstenedione except where indicated
(§2) The CellTiter-Glo® Luminescent Cell Viability Assay is a homogeneous method to determine the number of viable cells in culture based on quantitation of the ATP present, which signals the presence of metabolically active cells. […]
(§3) The assay assesses the ability of compounds to enter cells and inhibit cell proliferation. The assay principle is based on the determination of the number of viable cells present by quantitating the ATP present in a homogenous assay where addition of the Cell Titer-Glo® reagent results in cell lysis and generation of a luminescent signal through the luciferase reaction. […]
Cell viability assays. […] After 4 days incubation, relative numbers of viable cells were estimated using CellTiter-Glo (Promega, Madison, Wis.) and total luminescence was measured on an Envision plate Reader (PerkinElmer, Foster City, Calif.). […]
Cell viability assays and combination assays: Cells were seeded at 1000-2000 cells/well in 384-well plates for 16 h. […] After 4 days, relative numbers of viable cells were measured by luminescence using Cell Titer-Glo® (Promega) according to the manufacturer's instructions and read on a Wallac Multilabel Reader® (PerkinElmer, Foster City). EC50 values were calculated using Prism® 4.0 software (GraphPad, San Diego). […]

The test system of experiment [3] is pAkt, pPRAS40, pS6RP, pRb, cleaved PARP in MDA-MB-453 tumors. Put plainly: Protein levels (pharmacodynamic markers) in MDA-MB-453 tumors. Type of experiment: in vivo, mice. The conditions noted are these: for levels of pRB (ratio pRb to tRb): GDC-0032 5 mg/kg, palbociclib 50 mg/kg, 1 hr and 4 hr (FIG. 9d). As for the experimental part: FIGS. 9a-d show ratios of protein levels of mice treated with vehicle, GDC-0032 at 5 mg/kg, palbociclib at 50 mg/kg, and the combination of GDC-0032 at 5 mg/kg+palbociclib at 50 mg/kg, measured at 1 hr and 4 hr.

Experiment [4] relates to MCF7×2.3.CMV.ARO.LetR letrozole-resistant breast cancer cells. The experiment can be described thus: CellTiter-Glo cell viability, MCF7x2.3.CMV.ARO.LetR. Type of experiment: cell-based. The conditions noted are these: dose titrations (FIG. 6). The method, then:
as §1, §2, §3

Experiment [5] deals with cyclin D1, cyclin E, phosphorylated Rb (Ser807/811) and cleaved PARP. Put plainly: Western blot pathway signaling in MCF7-ARO parental and resistant lines. Type of experiment: cell-based. To be noted: 24 hours of treatment (FIG. 2). The method, then: Cells were treated for 24 hours with 20 nM GDC-0032 (Parental and Letrozole-R1) or 2.5 μM (Let-R1.GDC-0032-R) and/or 2.5 μM palbociclib.
Taselisib combines well with palbociclib in double-resistant MCF7-ARO cells (FIG. 1c). The effect on viability of taselisib and palbociclib as single agents is shown, respectively. The combination effect of the two drugs is indicated. Starting doses for taselisib were 80 nM for the parental and letrozole-R1 lines and 10 μM for […]. Palbociclib starting doses were 10 μM for all three lines (FIGS. 1a-c). Immunoblots from samples treated for 24 hours with 20 nM taselisib (Parental and Letrozole-R1) or 2.5 (Let-R1.taselisib-R). (D) Increased growth arrest is observed with combined PI3K and CDK4/6 inhibition. Immunoblots from samples treated for 24 hours with 20 nM taselisib (Parental and Letrozole-R1) or 2.5 μM (Let-R1. taselisib-R) and/or 2.5 μM palbociclib. Dotted lines for all viability data are indicative of CTG counts at the beginning of drug treatment. Error bars indicate standard deviation around the mean.

For `Cc1nc(-c2cn3c(n2)-c2ccc(-c4cnn(C(C)(C)C(N)=O)c4)cc2OCC3)n(C(C)C)n1` [GDC-0032, 2-(4-(2-(1-isopropyl-3-methyl-1H-1,2,4-triazol-5-yl)-5,6-dihydrobenzo[f]imidazo[1,2-d][1,4]oxazepin-9-yl)-1H-pyrazol-1-yl)-2-methylpropanamide], in experiment [1], the CR came to 0; the PR stood at 0; the “TTP 2X” value was 9.5; the “AUC/Day % TGI (lower, upper)” value is on record as 49 (16, 71) %. Moreover, in experiment [1], the “Vol Day 21” value was 349. Also, the “cell viability (CellTiter-Glo)” value in experiment [2] is “potency remains; also recorded: equally sensitive”. In addition, the “cell viability (CellTiter-Glo)” value in experiment [2] (listed as taselisib) was “similarly sensitive”. For the same molecule, the “levels of pAkt (ratio pAkt to tAkt)” value in experiment [3] (5 mg/kg, 1 hr and 4 hr (FIG. 9a)) is “effectively decreased”. The “levels of pPRAS40 (ratio pPRAS40 to tPRAS40)” value in experiment [3] (5 mg/kg, 1 hr and 4 hr (FIG. 9b)) is “effectively decreased”. In experiment [3] (5 mg/kg, 1 hr and 4 hr (FIG. 9c)), the “levels of pS6RP (ratio pS6RP to tS6RP)” value is reported as “effectively decreased”. In experiment [3] (5 mg/kg, 1 hr and 4 hr (FIG. 9e)), the “cell death based on cleaved PARP” value was “induced cell death”. Further, in experiment [3], the “levels of pRB (ratio pRb to tRb)” value was “decreased”. In addition, the “cell viability (CellTiter-Glo)” value in experiment [4] is given as “potency remains”. Further, in experiment [5], the “PI3K pathway signaling (immunoblot)” value is recorded as “decreases” and the “cleaved PARP (immunoblot)” value is recorded as “detected”.
Regarding `CC(=O)c1c(C)c2cnc(Nc3ccc(N4CCNCC4)cn3)nc2n(C2CCCC2)c1=O` [palbociclib, 6-acetyl-8-cyclopentyl-5-methyl-2-(5-(piperazin-1-yl)pyridin-2-ylamino)pyrido[2,3-d]pyrimidin-7(8H)-one, reference compound], in experiment [1], the CR came to 0; the PR worked out at 0; the “TTP 2X” value turned out to be 8.5; the “AUC/Day % TGI (lower, upper)” value is 39 (0, 63) %. Further, the “Vol Day 21” value in experiment [1] was 421. The “cell viability (CellTiter-Glo)” value in experiment [2] is “more resistant”. Also, the “levels of pRB (ratio pRb to tRb)” value in experiment [3] is given as “decreased”.
